Data reported in paper PMC9600172, “N-Succinyltransferase Encoded by a Cryptic Siderophore Biosynthesis Gene Cluster in Streptomyces Modifies Structurally Distinct Antibiotics” (mBio, 2022).
Values after ≈ are worked out from the molar mass of the structure shown. Like-named read-outs stand apart in the source and are kept apart here.

Key:
Design in all cases: Broth microdilution MIC following CLSI protocol, bacterial growth inhibition, at Medina Foundation
[1] = test system: T1, S. mutans ATCC25175; experiment: microbe, parasite or virus in culture; settings: Streptococcus mutans
T1 construct: ATCC 25175

[2] = test system: T2, Staphylococcus aureus MRSA MB5393; experiment: microbe, parasite or virus in culture
T2 construct: MB5393 (MRSA)
Protocol: (§1) Testing of antimicrobial activities of desertomycin A and X was done by disk diffusion assay using Bacillus subtilis 164, Escherichia coli DH5a, and Saccharomyces cerevisiae BY4742 as test organisms. […] In vitro susceptibility for desertomycin A was determined at Medina Foundation (Granada, Spain) by the broth microdilution method following the Clinical and Laboratory Standards Institute protocol ([34]) using bacterial strains from the company’s strain collection (Table S4). […] In order to properly assess antibiotic activity of desertomycin A, it was tested, along with some clinically relevant antibiotics, on a panel of Gram-positive and Gram-negative bacteria using the broth microdilution method. […] This can be explained by different physiological conditions of bacterial cultures on the solid agar medium (initial disk assay) and in [compound left out] cultures (CLSI method).

[3] = test system: T3, Staphylococcus aureus MSSA MB2865; experiment: microbe, parasite or virus in culture
T3 construct: MB2865 (MSSA)
Protocol: as §1

[4] = test system: T4, E. faeciumVR; experiment: organism not typed
T4 construct: VR (vancomycin-resistant)
Protocol: as §1

[5] = test system: T5, E. faeciumVS; experiment: organism not typed
T5 construct: VS (vancomycin-susceptible)
Protocol: as §1

[6] = test system: T2, Staphylococcus aureus MRSA MB5393; experiment: microbe, parasite or virus in culture; remark: listed apart in the source
Protocol: as §1, with “liquid” for “[compound left out]”

[7] = test system: T3, Staphylococcus aureus MSSA MB2865; experiment: microbe, parasite or virus in culture; remark: listed apart in the source
Protocol: as §1, with “liquid” for “[compound left out]”

[8] = test system: T4, E. faeciumVR; experiment: organism not typed; remark: listed apart in the source
Protocol: as §1, with “liquid” for “[compound left out]”

[9] = test system: T5, E. faeciumVS; experiment: organism not typed; remark: listed apart in the source
Protocol: as §1, with “liquid” for “[compound left out]”

| SMILES | MIC [1] | MIC [2] | MIC [3] | MIC [4] | MIC [5] | MIC [6] | MIC [7] | MIC [8] | MIC [9] |
| --- | --- | --- | --- | --- | --- | --- | --- | --- | --- |
| CC1=CCCC(C)C(O)C(C)C(O)CCC=CC(C)C(O)C=CC(C)C(O)C(C)=CC(O[C@H]2O[C@H](CO)[C@@H](O)[C@H](O)[C@@H]2O)C(O)CC(O)CC(O)CC(O)C(C)C(O)C(C)C(O)CC(O)CC(O)C=CCC(C(C)C(O)CCCN)OC1=O (stereo partly shown) [Desertomycin A] | 32 µg/mL (≈ 26.8 µM) | 64 µg/mL (≈ 53.7 µM) | 32 µg/mL (≈ 26.8 µM) | 128 µg/mL (≈ 107 µM) | 64 µg/mL (≈ 53.7 µM) | – | – | – | – |
| C[C@@H](O)[C@H]1C(=O)N2C(C(=O)O)=C(S[C@@H]3CN[C@H](C(=O)N(C)C)C3)[C@H](C)[C@H]12 [Meropenem] | – | 8 µg/mL (≈ 20.9 µM) | < 0.25 µg/mL | > 128 µg/mL | > 128 µg/mL | – | – | – | – |
| CC1(C)S[C@@H]2[C@H](NC(=O)Cc3ccccc3)C(=O)N2[C@H]1C(=O)O [Penicillin G] | – | 16 µg/mL (≈ 47.8 µM) | 16 µg/mL (≈ 47.8 µM) | > 128 µg/mL | > 128 µg/mL | – | – | – | – |
| CO[C@H]1/C=C/O[C@@]2(C)Oc3c(C)c(O)c4c(O)c(c(/C=N/N5CCN(C)CC5)c(O)c4c3C2=O)NC(=O)/C(C)=C\C=C\[C@H](C)[C@H](O)[C@@H](C)[C@@H](O)[C@@H](C)[C@H](OC(C)=O)[C@@H]1C [Rifampicin] | – | 0.5 µg/mL (≈ 0.608 µM) | 0.5 µg/mL (≈ 0.608 µM) | 16 µg/mL (≈ 19.4 µM) | 8 µg/mL (≈ 9.72 µM) | – | – | – | – |
| O=C(O)c1cn(C2CC2)c2cc(N3CCNCC3)c(F)cc2c1=O [Ciprofloxacin] | – | 0.5 µg/mL (≈ 1.51 µM) | < 0.25 µg/mL | 16 µg/mL (≈ 48.3 µM) | > 128 µg/mL | – | – | – | – |
| CNC(C)[C@@H]1CC[C@@H](N)[C@@H](O[C@H]2[C@H](O)[C@@H](O[C@H]3OC[C@](C)(O)[C@H](NC)[C@H]3O)[C@H](N)C[C@@H]2N)O1 (stereo partly shown) [Gentamicin] | – | – | – | – | – | < 0.25 µg/mL | 1 µg/mL (≈ 2.09 µM) | 32 µg/mL (≈ 67 µM) | > 128 µg/mL |
| C[C@H]1[C@H](NC(=O)/C(=N\OC(C)(C)C(=O)O)c2csc(N)n2)C(=O)N1S(=O)(=O)O [Aztreonam] | – | > 128 µg/mL | > 128 µg/mL | > 128 µg/mL | > 128 µg/mL | – | – | – | – |
| C[C@@H](O)[C@H]1C(=O)N2C(C(=O)O)=C(SCCNC=N)C[C@H]12 [Imipenem] | – | 8 µg/mL (≈ 26.7 µM) | < 0.25 µg/mL | > 128 µg/mL | > 128 µg/mL | – | – | – | – |
| CN[C@H](CC(C)C)C(=O)N[C@H]1C(=O)N[C@@H](CC(N)=O)C(=O)N[C@H]2C(=O)N[C@H]3C(=O)N[C@H](C(=O)N[C@H](C(=O)O)c4cc(O)cc(O)c4-c4cc3ccc4O)[C@H](O)c3ccc(c(Cl)c3)Oc3cc2cc(c3O[C@@H]2O[C@H](CO)[C@@H](O)[C@H](O)[C@H]2O[C@H]2C[C@](C)(N)[C@H](O)[C@H](C)O2)Oc2ccc(cc2Cl)[C@H]1O [Vancomycin] | – | 8 µg/mL (≈ 5.52 µM) | 2 µg/mL (≈ 1.38 µM) | > 128 µg/mL | 16 µg/mL (≈ 11 µM) | – | – | – | – |
